According to article PMC9137037 (Frontiers in Oncology, 2022):
Where no end group is shown, it is not given here.

Assays:
cynomolgus monkeys [1] = test: ELISA antibody titers, monkey study No.00213519; type: in vivo, Macaca fascicularis; conditions: monkey 2nd set, 25, 100, 250 µg on days 1, 15, 29, 43, serum days 29, 43, 57, APi2568 as capture
Protocol: The non-human primate studies were carried out by the Charles River Laboratories (Ashland, OH USA). All the cynomolgus monkeys (Macaca fascicularis of Chinese origin) were obtained from Charles River Laboratories (Houston, TX, USA). In brief, the animals were approximately 2–4 years old and at the body weight between 2.2 and 3.1 kg at the initial dosing. The animals were kept at the temperature between 19°C and 24°C, humidity 30%–70%, and with 12 h light and 12 h dark light cycle. The Good manufacturing practice (GMP)-manufactured vaccine was used in the non-human primate study. […] Similar to mouse and dog dosing preparation, after the emulsion was prepared, a drop test was performed on each time of dosing to confirm that the emulsion had been prepared properly. […] All the animals’ body weights were monitored weekly after receiving. […]
Enzyme-linked immunosorbent assay (ELISA) was performed per our lab standard procedure. […] After washing, the antibody was detected using 50 μl of 0.15% H2O2 in 24 mM of citric acid and 5 mM of the sodium phosphate buffer (pH5.2) with 0.5 mg/ml 2, […] (3-ethylbenzthiazole- 6-sulfonic acid, ABTS; Sigma, St. Louis, MO, USA) as the chromophore. […] Absorbance was read at 415 nm using an ELISA microplate reader (SPECTRAmax PLUS384; Molecular Devices, San Jose, CA, USA). The highest dilution at the cutoff absorbance 0.2 were determined as the antibody titer. […]

beagle dogs = test: Antibody isotyping of sera of immunized beagle dogs; type: in vivo, dog; conditions: dogs #1-#3
cynomolgus monkeys [2] = test: GLP repeat-dose toxicology, first monkey study No.00213515; type: in vivo, Macaca fascicularis
Protocol: The non-human primate studies were carried out by the Charles River Laboratories (Ashland, OH USA). All the cynomolgus monkeys (Macaca fascicularis of Chinese origin) were obtained from Charles River Laboratories (Houston, TX, USA). In brief, the animals were approximately 2–4 years old and at the body weight between 2.2 and 3.1 kg at the initial dosing. The animals were kept at the temperature between 19°C and 24°C, humidity 30%–70%, and with 12 h light and 12 h dark light cycle. The Good manufacturing practice (GMP)-manufactured vaccine was used in the non-human primate study. […] Similar to mouse and dog dosing preparation, after the emulsion was prepared, a drop test was performed on each time of dosing to confirm that the emulsion had been prepared properly. […] The dose volume was split approximately equally across two different sites; 0.5 ml of the dose was intramuscularly (IM) injected into the right posterior lateral thigh, the left dosing was injected into the left site. All the animals’ body weights were monitored weekly after receiving. After each immunization, the animal body temperature was tested 6 and 24 h post each immunization. […] The animal bleed were collected before each time of immunization to monitor the antibody titers. There were two sets of non-human primate studies conducted. The first set of monkey study No.00213515 had 24 monkeys, 12 males, and 12 females divided into 4 groups: vehicle control, low dose 0.5 mg, medium dose 2 mg, and high dose 5 mg. There were 16 monkeys (8 males and 8 females) in the second set of monkey study No. 00213519. The monkeys in the four groups were vaccinated as follows: vehicle control, low dose 25 μg, medium dose 100 μg, and high dose 250 μg.
In the non-human primate study (#00213515), 24 non-human primates, cynomolgus monkeys, were used. The monkeys were immunized four times (1Y, 2Y, 3Y, and 4Y at days 1, 15, 29, and 43, respectively). Sera were collected at day 1 (pre), day 43, and day 59 ( Figure 4A ). There were four groups and 6 monkeys in each group. Group 1 was the control group, which was treated with only ISA 720 and ddwater. Groups 2, 3, and 4 were peptide PD-1Vaxx treatment groups and were treated with low-dose 0.5 mg/dose, medium-dose […], or high-dose […] peptide vaccine, respectively ( Figure 4B ), emulsified in ISA 720.
These observations were first noted beginning after the second or third dose and were more frequent in female monkeys compared to male monkeys. • b) After the recovery period, all APi2568-related clinical observations had either recovered or were in the process of recovering, with the exception of swollen hind limbs.

[3] = target: T1, human recombinant protein PD-1 (Homo sapiens, UniProt Q15116); test: ELISA activity of dog sera with human recombinant protein PD-1; type: binding; conditions: Figure 3F
T1 construct: His tag; purchased ACROBiosystems PD1-H5221
Protocol: For the detection of PD-1 human recombinant protein activity, the human recombinant protein PD-1 (PD1-H5221, HIS tag; ACROBiosystems, Newark, DE, USA) 100 μl at the concentration of […] were coated on the 96 wells plate as an antigen. The following procedures were performed as the description of ELISA.
In order to investigate the diversity of the antibody produced by immunized dogs, isotypes IgM, IgA, IgG1, and IgG2 in dogs were detected after being immunized with the peptide vaccine ( Figure 3E ). In MVF-PD-1(92-110) vaccine-treated dogs, the majority of isotype is IgG2, which ranged from 74% to 81%, the IgG1 range from 12% to 18%, IgM from 5% to 9%, and IgA less than 2%. Peptide sera from dogs #1, 2, and 3 were used to detect the antibody activity against human recombinant protein PD-1.

T1 sequence (Q15116 25-288): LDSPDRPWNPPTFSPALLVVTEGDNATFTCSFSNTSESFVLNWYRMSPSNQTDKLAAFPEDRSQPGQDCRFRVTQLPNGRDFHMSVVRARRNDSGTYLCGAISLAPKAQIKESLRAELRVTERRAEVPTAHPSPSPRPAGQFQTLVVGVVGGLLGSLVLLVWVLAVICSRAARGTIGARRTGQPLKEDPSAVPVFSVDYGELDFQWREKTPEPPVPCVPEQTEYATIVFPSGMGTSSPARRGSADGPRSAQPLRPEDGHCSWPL

In the case of “KLLSLIKGVIVHRLEGVEGPSLGAISLAPKAQIKESLRAEL [MVF-PD-1(92-110)]”, the “anti-APi2568 antibody titers / immunogenicity (summary)” value (cynomolgus monkeys [1]; listed as APi2568) is reported as “high and were relatively uniform across sample collection days and between the APi2568 dose groups”, the “anti-APi2568 antibody titers / immunogenicity (summary)” value (cynomolgus monkeys [1]; listed as PD-1(92)) is reported as “high immunogenicity” and the IgA isotype percentage (beagle dogs) is reported as “less than 2%”. The “no-observed-adverse-effect level (NOAEL)” value (cynomolgus monkeys [2]; 0.5, 2, 5 mg/dose IM as PD1-Vaxx, male and female cynomolgus monkeys) was “could not be determined”, the “clinical findings at or near the IM site of dose administration” value (cynomolgus monkeys [2]; 0.5, 2, and 5 mg/dose groups, first noted after second or third dose, more frequent in females) was “adverse swelling, ulceration, and/or abscess formation” and the “induction of autoimmune responses” value (cynomolgus monkeys [2]; cynomolgus monkeys) was “has not been observed”. For the same sequence, the “safety (summary)” value (cynomolgus monkeys [2]; monkey 1st set) was “safe” and the “activity against recombinant PD-1 protein (summary)” value [3] was “high activity against recombinant PD-1 protein”.
